Laboratory results published in ChEMBL document CHEMBL1151573, “Cyclic homopentapeptides 3. Synthetic modifications to the capreomycins and tuberactinomycins: Compounds with activity against methicillin-resistant Staphylococcus aureus and vancomycin-resistant enterococci” (1997).
≈ marks a conversion by molar mass, not a printed value. Numbered stars: 1 amine (or outer) side, 2 acyl side, 3 side chain; on linkers, the order of the positions; unused ones are H or OH. Bridge positions count the residues as written; N and C are the ends. Square brackets hold non-standard residues; d marks the D form. Side chains are listed from the residue outwards. Peptide text beside a SMILES is read from it. * marks the point of attachment. ξ: configuration not given here. NH(4-cHex-phenyl) = c1cc(C2CCCCC2)ccc1N*; X1 = NC1=NCCC([C@H](N[*:1])C(=O)[*:2])N1; X2 = N=C1NCCC([C@H](N[*:1])C(=O)[*:2])N1; ΔAla(Z-3-ureido) = NC(=O)N/C=C(\N)C(=O)O; ΔDap(Z) = O=C(/C(=C/N[*:3])N[*:1])[*:2]; β3hR = N=C(N)NCCC[C@H](N)CC(=O)O; β3hOrn = NCCC[C@H](N)CC(=O)*; ξβ3hOrn = NCCCC(N)CC(=O)*; Dap = NC[C@H](N)C(=O)O; X3 = NCC[C@H](O)C(=O)*; CO = O=C([*:1])[*:2]; ξDap = NCC(N)C(=O)O

Legend:
[1] = Antibacterial activity against Enterococcus faecalis (vancomycin-resistant, methicillin-resistant, ciprofloxacin-resistant); type: functional, erythromycin faecalis
[2] = Antibacterial activity against Enterococcus faecium (vancomycin-resistant, erythromycin-resistant, ciprofloxacin-resistant); type: functional
Staphylococcus aureus = test: Antibacterial activity against Staphylococcus aureus (erythromycin- resistant, methicillin-resistant, ciprofloxacin- resistant) was determined; type: functional

CN[C@H](CC(C)C)C(=O)N[C@H]1C(=O)N[C@@H](CC(N)=O)C(=O)N[C@H]2C(=O)N[C@H]3C(=O)N[C@H](C(=O)N[C@H](C(=O)O)c4cc(O)cc(O)c4-c4cc3ccc4O)[C@H](O)c3ccc(c(Cl)c3)Oc3cc2cc(c3O[C@@H]2O[C@H](CO)[C@@H](O)[C@H](O)[C@H]2O[C@H]2C[C@](C)(N)[C@H](O)[C@H](C)O2)Oc2ccc(cc2Cl)[C@H]1O [VANCOMYCIN]
MIC [1]: > 100 µg/mL
MIC [2]: > 100 µg/mL
MIC (Staphylococcus aureus): 0.78 µg/mL (≈ 0.538 µM)

NCC[C@@H](O)[C@H](N)CC(=O)NC1CNC(=O)[C@@H](C2CCN=C(N)N2)NC(=O)/C(=C/Nc2ccc(Cl)c(Cl)c2)NC(=O)[C@@H](CO)NC(=O)[C@@H](CO)NC1=O (stereo not given in full)
MIC [1]: 50 µg/mL (≈ 63.5 µM)
MIC [2]: 25 µg/mL (≈ 31.7 µM)
MIC (Staphylococcus aureus): 12.5 µg/mL (≈ 15.9 µM)

NCCC[C@H](N)CC(=O)NC[C@@H]1NC(=O)[C@H](CO)NC(=O)C(N)CNC(=O)[C@H](C2CCN=C(N)N2)NC(=O)/C(=C/NC(=O)Nc2ccc(C3CCCCC3)cc2)NC1=O (stereo partly drawn) (H-[ξDap]S[Dap](β3hOrn)[ΔDap(Z)]([CO-NH(4-cHex-phenyl)])[X1]; lactam 1-C)
MIC [1]: 3.12 µg/mL (≈ 3.77 µM)
MIC [2]: 3.12 µg/mL (≈ 3.77 µM)
MIC (Staphylococcus aureus): 1.56 µg/mL (≈ 1.89 µM)

NC1=NC([C@H]2NC(=O)/C(=C/NC(=O)Nc3ccc(C4CCCCC4)cc3)NC(=O)[C@@H](CO)NC(=O)[C@@H](CO)NC(=O)C(NC(=O)Nc3ccc(Br)cc3)CNC2=O)CCN1 (stereo not given in full)
MIC [1]: 12.5 µg/mL (≈ 13.9 µM)
MIC [2]: 6.25 µg/mL (≈ 6.96 µM)
MIC (Staphylococcus aureus): 12.5 µg/mL (≈ 13.9 µM)

C[C@@H]1NC(=O)[C@@H](N)CNC(=O)[C@H](C2CCNC(=N)N2)NC(=O)/C(=C/NC(N)=O)NC(=O)[C@H](CNC(=O)CC(N)CCCN)NC1=O.N=C1NCCC([C@@H]2NC(=O)/C(=C/NC(N)=O)NC(=O)[C@H](CNC(=O)CC(N)CCCN)NC(=O)[C@H](CO)NC(=O)[C@@H](N)CNC2=O)N1 (stereo partly drawn) [CAPREOMYCIN] (H-[Dap]S[Dap](ξβ3hOrn)[ΔAla(Z-3-ureido)][X2]; lactam 1-C)
MIC [1]: > 1000 µg/mL
MIC [2]: > 1000 µg/mL
MIC (Staphylococcus aureus): 100 µg/mL

NCC1NC(=O)[C@H](CO)NC(=O)[C@H](CO)NC(=O)C(NC(=O)Nc2ccc(C3CCCCC3)cc2)CNC(=O)[C@H](C2CCN=C(N)N2)NC1=O (stereo not given in full) ({NH(4-cHex-phenyl)-CO}-[ξDap]SS[ξDap][X1]; lactam 1-C)
MIC [1]: > 100 µg/mL
MIC [2]: > 100 µg/mL
MIC (Staphylococcus aureus): > 100 µg/mL

NCCCNCCC(=O)NC1CNC(=O)[C@@H](C2CCN=C(N)N2)NC(=O)/C(=C/Nc2ccc(Cl)c(Cl)c2)NC(=O)[C@@H](CO)NC(=O)[C@@H](CO)NC1=O (stereo not given in full)
MIC [1]: 50 µg/mL (≈ 64.8 µM)
MIC [2]: 50 µg/mL (≈ 64.8 µM)
MIC (Staphylococcus aureus): 50 µg/mL (≈ 64.8 µM)

NC(N)=NCCC[C@H](N)CC(=O)NC[C@@H]1NC(=O)[C@H](CO)NC(=O)C(N)CNC(=O)[C@H](C2CCN=C(N)N2)NC(=O)/C(=C/NC(=O)Nc2ccc(C3CCCCC3)cc2)NC1=O (stereo partly drawn) (H-[ξDap]S[Dap](β3hR)[ΔDap(Z)]([CO-NH(4-cHex-phenyl)])[X1]; lactam 1-C)
MIC [1]: 3.12 µg/mL (≈ 3.59 µM)
MIC [2]: 3.12 µg/mL (≈ 3.59 µM)
MIC (Staphylococcus aureus): 1.56 µg/mL (≈ 1.8 µM)

O=C(N/N=C/c1cccc2c(OCc3ccc(OC(F)(F)F)cc3)cccc12)c1ccc(O)c(Cl)c1
MIC [1]: 12.5 µg/mL (≈ 24.3 µM)
MIC [2]: 3.12 µg/mL (≈ 6.06 µM)
MIC (Staphylococcus aureus): 25 µg/mL (≈ 48.6 µM)

NCCC[C@H](N)CC(=O)NC[C@@H]1NC(=O)[C@H](CO)NC(=O)C(NC(=O)[C@@H](O)CCN)CNC(=O)[C@H](C2CCN=C(N)N2)NC(=O)/C(=C/NC(=O)Nc2ccc(C3CCCCC3)cc2)NC1=O (stereo partly drawn) (X3-[ξDap]S[Dap](β3hOrn)[ΔDap(Z)]([CO-NH(4-cHex-phenyl)])[X1]; lactam 1-C)
MIC [1]: 6.25 µg/mL (≈ 6.73 µM)
MIC [2]: 6.25 µg/mL (≈ 6.73 µM)
MIC (Staphylococcus aureus): 3.12 µg/mL (≈ 3.36 µM)
